Source: patent US11492347B2 (ENYO PHARMA, priority 2018, dated 2022)

Columns and labels:
[1] = test system: H1N1 (influenza A/New Caledonia/20/99); assay: microbe, parasite or virus in culture; format: cell-based; conditions: H1N1, A549, 48 h
NFκB = NFκB reporter assay, TNFα stimulation of A549 NFκB-NanoLuciferase reporter cells; format: cell-based; conditions: Homo sapiens, 4 ng/ml TNFα, NanoGlo luciferase assay 6 hours later
Source text: Compounds of the present invention have been tested for their capacity to inhibit NFκB.
The NFκB reporter construct was made by cloning 5 NFκB responsive elements upstream of a NanoLuciferase reporter gene flanked by AAVS1 genomic sequences.
NFκB Responsive element fused with NanoLuciferase and SV40 late Poly(A) signal was amplified from pNL3.2-NFκB-Nluc (Promega) using NFKB-NLUC-F and NFKB-NLUC-R primers and inserted by Infusion (TaKaRa) in AAVS1 SA-2A-puro-pA donor plasmid (Hockemeyer et al, Nat Biotechnol. 2009, 27, 851-7) digested by Sal1. pCRISPR AAVS1-T2 expressing a guide RNA (gRNA) to target human AAVS1 (T2 target sequence) was constructed by inserting AAVS1-T2A hybridized primers in pLentiCRISPR v2-blast (Sanjana et al, Nat Methods. 2014, 11, 783-4) digested by Bsmbl.
A549 cells were transfected by the plasmids and puromycine selected for 5 days (1 μg mL-1). Then clones were obtained by limiting dilution and selected to maximize TNF dependent NFκB-NanoLuciferase induction.
The reporter cells were seeded on a 96-well plate for overnight with DMEM including 10% FBS. Test compounds were added at varying concentrations. The cells then were treated with 4 ng/ml TNFα (Peprotech, ref E251) in DMEM+10% FBS. NanoGlo luciferase assay (Promega) was carried out 6 hours later. Luminescence was measured using a Spark 20M spectrofluorimeter (Tecan). Values were normalized to the luminescence measured in untreated cells.

[2] = target: T1, CISD1 Gene Product (mitoNEET) (Homo sapiens, UniProt Q9NZ45); assay: Stability of Fe-S cluster binding of purified NEET protein (absorbance 458 nm); format: biochemical; conditions: for Time (in minutes) to achieve 50% loss of bound cluster (Absorbance 458 nm) / Residual cluster bound at end of experiment (Percentage Absorbance 458 nm at time zero): mitoNEET 20 μM, compound 60 μM; for Time (in minutes) to achieve 50% loss of bound cluster (Absorbance 458 nm): pH 6, 37° C., run time 180 minutes, vehicle control 80; for Residual cluster bound at end of experiment (Percentage Absorbance 458 nm at time zero): pH 6, at 180 minutes, vehicle control 16%
T1 sequence (Q9NZ45 33-108 limits assumed): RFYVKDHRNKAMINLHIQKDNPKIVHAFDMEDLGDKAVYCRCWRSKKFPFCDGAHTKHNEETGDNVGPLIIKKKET
Method: (§1) The modulator effect on the NEET proteins encoded by human CISD1, CISD2, and CISD3 genes by the compounds of the invention has been tested and is reported below. Particularly, the biochemical function of the NEET proteins is measured by the stability of Fe—S cluster binding of the purified NEET proteins.
(§2) The Fe—S cluster binding capacity of NEET proteins is known to be coordinated by four amino-acids in a stretch of 16 (three Cysteine and one Histidine). As the lability of the Fe—S cluster of NEET proteins is sensitive to the environment, cluster stability measurements are one of the measures of interactions of NEET proteins with small molecules and compounds. NEET protein/2Fe-2S cluster stability can be assessed by monitoring the decay in absorbance of its characteristic 458-nm peak (characteristic of the oxidized 2Fe-2S cluster) over time. Each NEET protein (mitoNEET, NAF-1 and Miner 2) was tested for its Fe—S binding in the absence or presence of a compound according to the invention (see table 4 below). The rate of cluster release (time in minutes to achieve 50% loss of bound Fe—S cluster) was compared for each NEET protein in the presence of one of the compounds of the invention (in a 1:3 protein:compound molar ratio) relative to each protein alone.
(§3) At pH 6, all the three NEET proteins (mitoNEET, NAF-1 and Miner 2) have a characteristic rate of loss of the bound Fe—S cluster that can be measured by the decrease of absorbance at wavelength 458 nm over time, using a spectrophotometer. Thus, Bis-Tris buffer (100 mM Bis-Tris pH6, 100 mM Nacl) was used at pH 6 to dilute either DMSO (Blank sample: Bis-Tris Buffer pH 6, 66 μM DMSO), DMSO and one of the three NEET proteins (Control sample: Bis-Tris Buffer pH 6, 66 μM DMSO, 20 μM purified NEET protein) or DMSO, one of the three NEET proteins and a compound of the invention (Test sample: Bis-Tris Buffer pH 6, 66 μM DMSO, 20 μM purified NEET protein, 60 μM compound of the invention).
(§4) A reaction mix containing DMSO diluted in the Bis-Tris Buffer with or without a compound of the invention was prepared. The purified NEET protein was the last component added to the reaction mix which was then aliquoted into 4 replicates in 96 wells plates. The absorbance at wavelength 458 nm was taken at 5 minutes intervals at 37° C. with a spectrofluorimeter. The assay run time for CISD2 gene product (NAF-1) was 500 minutes and 180 minutes for both the CISD1gene product (mitoNEET) and the CISD3 gene product (Miner2).
(§5) In addition to time monitoring, residual bound Fe—S cluster to NEET protein was measured at the final point of the spectrometry assay for each Test sample and compared to the Control sample data (in parenthesis table 4). This residual binding is measured by the differential percentage between the absorbance 458 nm at time zero and the absorbance 458 nm at the end of the experiment (i.e. respectively 500 or 180 minutes as described here above), showing the percentage of NEET protein still able to bind a Fe—S cluster.
(§6) Analysis of the absorbance enables the time for which 50% loss of bound Fe—S cluster is reached (i.e. a 50% absorbance decrease at 458 nm) for each Test sample and each Control sample (in parenthesis table 4) to be determined. The data are then compared to determine whether the compound of the invention stabilizes or destabilizes the NEET protein/Fe—S cluster binding.

[3] = target: T2, CISD2 Gene Product (NAF-1) (Homo sapiens, UniProt Q8N5K1); assay: as above; format: biochemical; conditions: for Time (in minutes) to achieve 50% loss of bound cluster (Absorbance 458 nm) / Residual cluster bound at end of experiment (Percentage Absorbance 458 nm at time zero): NAF-1 20 μM, compound 60 μM; for Time (in minutes) to achieve 50% loss of bound cluster (Absorbance 458 nm): pH 6, 37° C., run time 500 minutes, vehicle control 310 or 210; for Residual cluster bound at end of experiment (Percentage Absorbance 458 nm at time zero): pH 6, at 500 minutes, vehicle control 3%; for Stabiliser or destabiliser of Fe-S cluster binding by CISD2 Gene Product (NAF-1): time to 50% cluster loss changed by more than 25% compared to the Control sample, at the concentrations tested
T2 sequence (Q8N5K1 57-135 limits assumed): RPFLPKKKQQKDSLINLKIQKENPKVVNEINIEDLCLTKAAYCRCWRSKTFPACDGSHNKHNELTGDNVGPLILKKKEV
Method: as §1, §2, §3, §4, §5, §6

[4] = target: T3, CISD3 Gene Product (Miner2) (Homo sapiens, UniProt P0C7P0); assay: as above; format: biochemical; conditions: for Residual cluster bound at end of experiment (Percentage Absorbance 458 nm at time zero): CISD3 gene product 20 μM, pH 6, at 180 minutes, vehicle control 11%; for Stabiliser or destabiliser of Fe-S cluster binding by CISD3 Gene Product (Miner2): time to 50% cluster loss changed by more than 25% compared to the Control sample, at the concentrations tested
T3 sequence (P0C7P0 15-127): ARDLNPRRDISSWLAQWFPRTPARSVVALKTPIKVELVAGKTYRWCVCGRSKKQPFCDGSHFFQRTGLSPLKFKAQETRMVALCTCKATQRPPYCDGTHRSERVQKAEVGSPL
Method: as §1, §2, §3, §4, §5, §6

UXF 1138 = assay: Cytotoxicity, propidium iodide based monolayer assay; format: cell-based; conditions: 96 h; UXF 1138 uterine sarcoma, four days of treatment, T/C=50%; read-out: Absolute IC50
Method: The cytotoxicity was tested for compounds of the invention on five different cell-lines, namely LXFL 1121, MAXF 401, MMXF L-636, PRXF PC-3M and UXF 1138 which are respectively lung large cell carcinoma, breast adeno carcinoma, multiple myeloma, prostate adeno carcinoma and uterine sarcoma.
A working stock solution of the test compounds was prepared in DMSO at a concentration of 33 mM or 8.25 mM, and small aliquots were stored at −20° C. On each day of an experiment, a frozen aliquot of the working stock solution was thawed and stored at room temperature prior to and during treatment.
All liquid handling steps were performed using the Tecan Freedom EVO 200 platform. First, serial 2-fold dilutions of the 33 mM DMSO working stock solution were done in DMSO. The DMSO dilutions were then diluted 1:22 into cell culture medium in an intermediate dilution plate. Finally, 10 μl taken from the intermediate dilution plate were transferred to 140 μl/well of the final assay plate. Thus, the DMSO serial dilutions were diluted 1:330 with cell culture medium, and the DMSO concentration in the assay was 0.3% v/v.
Cell lines were routinely passaged once or twice weekly and maintained in culture for up to 20 passages. Most cell lines were grown at 37° C. in a humidified atmosphere with 5% CO2 in RPMI 1640 medium (25 mM HEPES, with L-glutamine, #FG1385, Biochrom, Berlin, Germany) supplemented with 10% (v/v) fetal calf serum (Sigma, Taufkirchen, Germany) and 0.05 mg/mL gentamicin (Life Technologies, Karlsruhe, Germany).
A modified propidium iodide (PI) based monolayer assay was used to assess the anti-cancer activity of the compounds. Briefly, cells were harvested from exponential phase cultures, counted and plated in 96 well flat-bottom microtiter plates at a cell density of 4,000 to 40,000 cells/well dependent on the cell line's growth rate. The individual seeding density for each cell line ensure exponential growth conditions over the whole or at least the bigger part of the treatment period. After a 24 h recovery period, to allow the cells to resume exponential growth, 10 μl of culture medium (6 control wells/cell line/plate) or of culture medium with test compounds were added. Compounds were applied at ten concentrations in 2-fold increments in duplicates up to 25 μM or 100 μM and treatment continued for four days. After four days of treatment, cells were next washed with 200 μl PBS to remove dead cells and debris, then 200 μl of a solution containing 7 μg/ml propidium iodide (PI) and 0.1% (v/v) Triton X-100 was added. After an incubation period of 1-2 hours at room temperature, fluorescence (FU) was measured using the Enspire Multimode Plate Reader (excitation λ=530 nm, emission k=620 nm) to quantify the amount of attached viable cells.
Drug effects were expressed in terms of the percentage of the fluorescence signal, obtained by comparison of the mean signal in the treated wells with the mean signal of the untreated controls (expressed by the test-versus-control value, T/C−value [%]):
[formula] IC values reported reflect the concentration of the test compound that achieves T/C=50%. Calculation was done by 4 parameter non-linear curve fit.

| Compound | IC50 [1] [nM] | EC50 (NFκB) [nM] | Time (in minutes) to achieve 50% loss of bound cluster (Absorbance 458 nm) [2] | Residual cluster bound at end of experiment (Percentage Absorbance 458 nm at time zero) [2] | Stabiliser or destabiliser of Fe-S cluster binding by CISD1 Gene Product (mitoNEET) ([2]; time to 50% cluster loss changed by more than 25% compared to the Control sample, at the concentrations tested) | Time (in minutes) to achieve 50% loss of bound cluster (Absorbance 458 nm) [3] | Residual cluster bound at end of experiment (Percentage Absorbance 458 nm at time zero) [3] | Stabiliser or destabiliser of Fe-S cluster binding by CISD2 Gene Product (NAF-1) [3] | Residual cluster bound at end of experiment (Percentage Absorbance 458 nm at time zero) ([4]; compound 60 μM) | Time (in minutes) to achieve 50% loss of bound cluster (Absorbance 458 nm) ([4]; Miner2 20 μM, compound 60 μM, pH 6, 37° C., run time 180 minutes, vehicle control 60) | Stabiliser or destabiliser of Fe-S cluster binding by CISD3 Gene Product (Miner2) [4] | IC50 (UXF 1138) [nM] |
| --- | --- | --- | --- | --- | --- | --- | --- | --- | --- | --- | --- | --- |
| CC1(C)CCc2sc(NC(=O)c3ccc(NCC4CCOCC4)cc3)c(C(=O)O)c2C1 [#164, 5,5-Dimethyl-2-[[4-(tetrahydropyran-4-ylmethylamino)benzoyl]amino]-6,7-dihydro-4H-benzothiophene-3-carboxylic acid] | 16 | 90 | – | – | – | – | – | – | – | – | – | – |
| CC1(C)Cc2c(sc(NC(=O)c3ccccc3)c2C(=O)O)C(C)(C)C1 [Compound #33, 2-Benzamido-5,5,7,7-tetramethyl-4,6-dihydrobenzothiophene-3-carboxylic acid] | 34.6 | 400 | – | – | – | – | – | – | – | – | – | – |
| COCCNc1ccc(C(=O)Nc2sc3c(c2C(=O)O)CC(C)(C)CC3(C)C)cc1 [Compound #60, 2-[[4-(2-Methoxyethylamino)benzoyl]amino]-5,5,7,7-tetramethyl-4,6-dihydrobenzothiophene-3-carboxylic acid] | 10 | – | 100 (80) minutes | 35% (16%) | stabilisers | 120 (310) minutes | 12% (3%) | destabilisers | 38% (11%) | 90 (60) minutes | Stabilisers | 851 |
| CC1(C)CCc2c(sc(NC(=O)c3ccccc3)c2C(=O)O)C1 [Compound #15, 2-Benzamido-6,6-dimethyl-5,7-dihydro-4H-benzothiophene-3-carboxylic acid] | 60 | 150 | – | – | – | – | – | – | – | – | – | – |
| COc1ccc(C(=O)Nc2sc3c(c2C(=O)O)CCC(C)(C)C3)c(F)c1 [Compound #16, 2-[(2-Fluoro-4-methoxybenzoyl)amino]-6,6-dimethyl-5,7-dihydro-4H-benzothiophene-3-carboxylic acid] | 43.8 | 150 | – | – | – | – | – | – | – | – | – | – |
| CC1(C)Cc2c(sc(NC(=O)c3ccc(NCC4CCOCC4)cc3)c2C(=O)O)C(C)(C)C1 [Compound #132, 5,5,7,7-Tetramethyl-2-[[4-(tetrahydropyran-4-ylmethylamino)benzoyl]amino]-4,6-dihydrobenzothiophene-3-carboxylic acid] | 1.7 | 40 | 90 (80) minutes | 19% (16%) | – | 210 (310) minutes | 19% (3%) | destabilisers | 50% (11%) | – | Stabilisers | – |
| CC1(C)CCc2sc(NC(=O)c3ccc(NC4CCOCC4)cc3)c(C(=O)O)c21 [Compound #62, 4,4-Dimethyl-2-[[4-(tetrahydropyran-4-ylamino)benzoyl]amino]-5,6-dihydrocyclopenta[b]thiophene-3-carboxylic acid] | 50 | 380 | – | – | – | – | – | – | – | – | – | – |
